{
  "source": "paper PMC4831007",
  "about": "“Discovery of a specific inhibitor of human GLUT5 by virtual screening and in vitro transport evaluation” (Scientific Reports, 2016)",
  "key": {"native human GLUT5": {"molecular_target": "T1, native human GLUT5 (Homo sapiens, UniProt P22732)", "T1 construct": "gene SLC2A5; native full-length transporter in MCF7 breast cancer cells", "T1 sequence (P22732 1-501)": "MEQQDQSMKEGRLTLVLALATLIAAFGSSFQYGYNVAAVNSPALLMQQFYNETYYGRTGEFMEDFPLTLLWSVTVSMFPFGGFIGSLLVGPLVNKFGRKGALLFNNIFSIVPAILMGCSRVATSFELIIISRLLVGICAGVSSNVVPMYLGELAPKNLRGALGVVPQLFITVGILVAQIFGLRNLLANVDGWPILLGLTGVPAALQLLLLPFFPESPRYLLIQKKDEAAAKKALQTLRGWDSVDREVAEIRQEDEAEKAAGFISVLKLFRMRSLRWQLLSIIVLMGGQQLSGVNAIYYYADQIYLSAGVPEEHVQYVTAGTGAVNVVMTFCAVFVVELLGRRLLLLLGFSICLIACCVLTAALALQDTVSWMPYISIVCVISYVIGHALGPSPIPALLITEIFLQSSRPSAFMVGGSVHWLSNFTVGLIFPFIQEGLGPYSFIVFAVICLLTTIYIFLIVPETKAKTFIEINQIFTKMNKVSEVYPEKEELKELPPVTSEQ", "assay": "[…]-fructose uptake in MCF7 cells, Dixon plot", "assay_type": "cell-based", "conditions": "competitive with fructose; 50 μM cytochalasin B present to block GLUT2; 3-20 mM fructose; 2 min; 22 °C"}, "GlcPSe": {"molecular_target": "T2, GlcPSe (Staphylococcus epidermidis, UniProt A0A0H2VG78, F348H)", "T2 construct": "gene glcP", "T2 sequence (A0A0H2VG78 whole entry F348H)": "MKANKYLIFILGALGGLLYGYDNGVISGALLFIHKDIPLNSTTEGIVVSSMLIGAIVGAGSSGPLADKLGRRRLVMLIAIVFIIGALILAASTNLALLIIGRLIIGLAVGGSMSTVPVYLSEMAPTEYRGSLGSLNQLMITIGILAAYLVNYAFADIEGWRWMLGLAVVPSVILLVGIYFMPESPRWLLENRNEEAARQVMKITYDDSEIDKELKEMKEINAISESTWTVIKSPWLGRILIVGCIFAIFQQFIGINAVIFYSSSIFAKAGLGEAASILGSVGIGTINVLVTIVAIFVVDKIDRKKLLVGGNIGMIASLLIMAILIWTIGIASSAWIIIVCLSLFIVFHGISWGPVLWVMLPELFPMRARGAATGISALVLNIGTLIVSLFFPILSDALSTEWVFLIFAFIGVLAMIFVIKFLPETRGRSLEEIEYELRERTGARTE", "assay": "biochemical", "conditions": "read-out: % inhibition at 2 mM"}, "GLUT1 [1]": {"molecular_target": "T3, GLUT1 (Homo sapiens, UniProt P11166)", "T3 construct": "gene SLC2A1; full length, N-terminal His6 tag, Sf21 insect cells, purified in DDM, reconstituted in proteoliposomes", "T3 sequence (P11166 1-492)": "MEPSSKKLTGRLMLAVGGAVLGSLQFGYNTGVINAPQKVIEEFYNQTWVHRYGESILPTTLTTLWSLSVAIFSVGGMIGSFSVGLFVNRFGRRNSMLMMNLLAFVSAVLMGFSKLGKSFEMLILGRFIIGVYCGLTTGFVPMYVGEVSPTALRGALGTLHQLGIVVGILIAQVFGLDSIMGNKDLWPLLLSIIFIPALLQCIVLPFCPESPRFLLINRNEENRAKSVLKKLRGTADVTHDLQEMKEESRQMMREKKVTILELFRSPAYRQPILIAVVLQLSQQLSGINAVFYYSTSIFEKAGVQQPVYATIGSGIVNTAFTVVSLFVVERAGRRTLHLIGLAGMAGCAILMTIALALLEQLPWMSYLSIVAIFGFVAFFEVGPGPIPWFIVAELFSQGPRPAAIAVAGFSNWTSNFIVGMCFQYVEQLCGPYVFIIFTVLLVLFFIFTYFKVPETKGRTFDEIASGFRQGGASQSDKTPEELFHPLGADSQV", "assay": "[…]-glucose entrance counter-flow in proteoliposomes", "assay_type": "biochemical"}, "GLUT1 [2]": {"molecular_target": "T3, GLUT1", "assay": "[…]-glucose entrance counter-flow in proteoliposomes", "assay_type": "biochemical", "conditions": "10 μM 14C-glucose outside, 200 mM glucose inside; pH 7.5; 1 min; labelled compound"}, "GLUT3": {"molecular_target": "T4, GLUT3 (Homo sapiens, UniProt P11169)", "T4 construct": "gene SLC2A3; full length, N-terminal His6 tag, Sf21 insect cells, purified in DDM, reconstituted in proteoliposomes", "T4 sequence (P11169 1-496)": "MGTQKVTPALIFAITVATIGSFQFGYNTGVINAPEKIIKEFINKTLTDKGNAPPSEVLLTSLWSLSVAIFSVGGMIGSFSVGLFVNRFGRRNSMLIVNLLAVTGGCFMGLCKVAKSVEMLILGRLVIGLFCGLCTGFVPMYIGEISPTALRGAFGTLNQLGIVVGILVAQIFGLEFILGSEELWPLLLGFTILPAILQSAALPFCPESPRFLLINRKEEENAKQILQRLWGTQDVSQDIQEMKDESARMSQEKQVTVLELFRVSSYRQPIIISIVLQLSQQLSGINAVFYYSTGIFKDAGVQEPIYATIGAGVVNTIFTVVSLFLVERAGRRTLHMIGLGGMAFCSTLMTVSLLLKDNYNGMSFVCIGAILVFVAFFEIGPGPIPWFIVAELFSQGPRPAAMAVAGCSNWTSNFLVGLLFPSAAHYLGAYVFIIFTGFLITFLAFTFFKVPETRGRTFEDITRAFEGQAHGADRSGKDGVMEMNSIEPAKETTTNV", "assay": "[…]-glucose entrance counter-flow in proteoliposomes", "assay_type": "biochemical", "conditions": "10 μM 14C-glucose outside, 200 mM glucose inside; pH 7.5; 1 min; labelled compound"}, "GLUT4": {"molecular_target": "T5, GLUT4 (Homo sapiens, UniProt P14672)", "T5 construct": "gene SLC2A4; full length, N-terminal His6 tag, Sf21 insect cells, purified in DDM, reconstituted in proteoliposomes", "T5 sequence (P14672 1-509)": "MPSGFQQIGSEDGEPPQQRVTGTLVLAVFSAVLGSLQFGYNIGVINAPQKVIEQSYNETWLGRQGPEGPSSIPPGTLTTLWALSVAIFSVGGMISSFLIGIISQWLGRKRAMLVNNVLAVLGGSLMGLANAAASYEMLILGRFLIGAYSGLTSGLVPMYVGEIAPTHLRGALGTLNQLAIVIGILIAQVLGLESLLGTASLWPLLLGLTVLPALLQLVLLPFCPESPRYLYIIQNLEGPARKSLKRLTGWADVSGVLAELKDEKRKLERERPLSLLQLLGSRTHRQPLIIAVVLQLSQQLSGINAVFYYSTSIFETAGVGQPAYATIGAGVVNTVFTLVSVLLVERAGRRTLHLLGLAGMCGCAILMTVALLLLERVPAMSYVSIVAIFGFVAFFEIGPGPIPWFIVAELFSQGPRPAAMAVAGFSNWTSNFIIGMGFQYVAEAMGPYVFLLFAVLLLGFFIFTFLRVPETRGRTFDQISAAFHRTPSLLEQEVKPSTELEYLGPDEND", "assay": "[…]-glucose entrance counter-flow in proteoliposomes", "assay_type": "biochemical", "conditions": "10 μM 14C-glucose outside, 200 mM glucose inside; pH 7.5; 1 min; labelled compound"}, "GLUT2 [3]": {"molecular_target": "T6, GLUT2 (Homo sapiens, UniProt P11168)", "T6 construct": "gene SLC2A2; full length, N-terminal His6 tag, Sf21 insect cells, purified in DDM, reconstituted in proteoliposomes", "T6 sequence (P11168 1-524)": "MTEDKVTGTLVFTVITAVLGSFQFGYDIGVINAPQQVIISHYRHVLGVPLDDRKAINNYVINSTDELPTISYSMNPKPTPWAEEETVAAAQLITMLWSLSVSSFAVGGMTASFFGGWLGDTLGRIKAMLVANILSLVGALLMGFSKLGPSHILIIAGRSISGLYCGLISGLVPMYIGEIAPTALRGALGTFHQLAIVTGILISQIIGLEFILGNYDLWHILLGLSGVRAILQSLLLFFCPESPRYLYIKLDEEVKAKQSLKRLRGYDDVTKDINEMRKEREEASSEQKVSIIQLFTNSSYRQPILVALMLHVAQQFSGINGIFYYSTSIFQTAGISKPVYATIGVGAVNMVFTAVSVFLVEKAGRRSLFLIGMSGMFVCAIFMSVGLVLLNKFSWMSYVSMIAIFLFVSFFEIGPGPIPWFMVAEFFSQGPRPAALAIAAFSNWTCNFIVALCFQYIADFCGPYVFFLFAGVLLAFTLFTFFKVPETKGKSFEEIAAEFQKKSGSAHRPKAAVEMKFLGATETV", "assay": "[…]-glucose entrance counter-flow in proteoliposomes", "assay_type": "biochemical", "conditions": "10 μM 14C-glucose outside, 200 mM glucose inside; pH 7.5; 1 min; labelled compound"}, "GLUT2 [4]": {"molecular_target": "T6, GLUT2", "assay": "[…]-fructose entrance counter-flow in proteoliposomes", "assay_type": "biochemical", "conditions": "10 μM 14C-fructose outside, 200 mM fructose inside; pH 7.5; 1 min; labelled compound"}},
  "note": "Where two headings read alike, the source gives them in different places.",
  "data": [
    {"smiles": "CS(=O)(=O)c1ccc(Nc2ccc3c(c2)OCO3)c([N+](=O)[O-])c1", "note": "[MSNBA, N-[4-(methylsulfonyl)-2-nitrophenyl]-1,3-benzodioxol-5-amine]", "values": [
      {"measurement": "Ki", "setting": "native human GLUT5", "result": "3.2 ± 0.4", "unit": "µM"},
      {"measurement": "inhibition at 2000 µM", "setting": "GlcPSe", "result": 75, "unit": "%"}
    ]},
    {"smiles": "C=C1[C@@H](C)[C@H]2[C@H](Cc3ccccc3)NC(=O)[C@]23OC(=O)/C=C/[C@H](O)CCC[C@@H](C)C/C=C/[C@H]3[C@@H]1O", "note": "[cytochalasin B]", "values": [
      {"measurement": "% inhibition at 2 mM", "setting": "GLUT1 [1]; 10 μM 14C-glucose outside, 200 mM glucose inside, pH 7.5, 1 min", "result": "Effect of common GLUT1 inhibitors on the relative transport activity of GLUT5, GLUT1 and GlcPSe"}
    ]},
    {"smiles": "O=C(CCc1ccc(O)cc1)c1c(O)cc(O)cc1O", "note": "[phloretin]", "values": [
      {"measurement": "% inhibition at 2 mM", "setting": "GLUT1 [1]", "result": "Effect of common GLUT1 inhibitors on the relative transport activity of GLUT5, GLUT1 and GlcPSe"}
    ]},
    {"smiles": "OC[C@H]1OC(O)[C@H](O)[C@@H](O)[C@@H]1O", "note": "(stereo partly drawn) [glucose]", "values": [
      {"measurement": "14C-glucose entrance counter-flow in proteoliposomes", "setting": "GLUT1 [2]", "result": "Glucose transport of GLUT1, GLUT2, GLUT3 and GLUT4"},
      {"measurement": "14C-glucose entrance counter-flow in proteoliposomes", "setting": "GLUT3", "result": "Glucose transport of GLUT1, GLUT2, GLUT3 and GLUT4"},
      {"measurement": "14C-glucose entrance counter-flow in proteoliposomes", "setting": "GLUT4", "result": "Glucose transport of GLUT1, GLUT2, GLUT3 and GLUT4"},
      {"measurement": "14C-glucose entrance counter-flow in proteoliposomes", "setting": "GLUT2 [3]", "result": "Glucose transport of GLUT1, GLUT2, GLUT3 and GLUT4"}
    ]},
    {"smiles": "OCC1(O)OC[C@@H](O)[C@@H](O)[C@@H]1O", "note": "(stereo partly drawn) [fructose]", "values": [
      {"measurement": "14C-fructose entrance counter-flow in proteoliposomes", "setting": "GLUT2 [4]", "result": "fructose transport of GLUT2 were assayed by the entrance counter-flow method in proteoliposomes"}
    ]}
  ]
}
